The supplement of paper PMC10307832

Key:
Experiment in all cases: relative viability (nuclei count vs DMSO), 5 days (fraction); higher = more cells survive
IDH-C35 + Navitoclax = compound: Cc1ccccc1C(C(=O)NC1CCCCC1)N(C(=O)Cn1ccnc1C)c1cccc(F)c1 [IDH-C35] + CC1(C)CCC(c2ccc(Cl)cc2)=C(CN2CCN(c3ccc(C(=O)NS(=O)(=O)c4ccc(N[C@H](CCN5CCOCC5)CSc5ccccc5)c(S(=O)(=O)C(F)(F)F)c4)cc3)CC2)C1 [Navitoclax] (partner 0.5 µM)
Method in brief: (§1)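 Lung cancer cell lines in 1536-well plates got either a single drug or a fixed anchor-drug dose together with five library-drug doses (not always all listed) in √10 steps, by pin tool, on the day after seeding. Nuclei were counted after 5 days, and relative viability is the treated-to-vehicle ratio of nuclei counts. Values are medians of duplicate plates.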

IDH-C35 + Crizotinib = compound: Cc1ccccc1C(C(=O)NC1CCCCC1)N(C(=O)Cn1ccnc1C)c1cccc(F)c1 [IDH-C35] + C[C@@H](Oc1cc(-c2cnn(C3CCNCC3)c2)cnc1N)c1c(Cl)ccc(F)c1Cl [Crizotinib] (partner 1 µM)
Method in brief: as §1

[1] = compound: CC1=C(C(=NN1)C)CC2=C(C3=C(S2)N(C(=O)N(C3=O)C)CC(C)C)C(=O)N4C[C@@H](CO4)O + Cc1cc(Nc2cc(N3CCN(C)CC3)nc(Sc3ccc(NC(=O)C4CC4)cc3)n2)n[nH]1 [Tozasertib] (partner 0.1 µM)
Method in brief: as §1

IDH-C35 + Pemetrexed = compound: Cc1ccccc1C(C(=O)NC1CCCCC1)N(C(=O)Cn1ccnc1C)c1cccc(F)c1 [IDH-C35] + Nc1nc2[nH]cc(CCc3ccc(C(=O)N[C@@H](CCC(=O)O)C(=O)O)cc3)c2c(=O)[nH]1 [Pemetrexed] (partner 0.2 µM)
Method in brief: as §1

Row | Cell Line | relative viability (IDH-C35 + Navitoclax; first compound 0.08 µM) | relative viability (IDH-C35 + Navitoclax; first compound 0.253 µM) | relative viability (IDH-C35 + Navitoclax; first compound 0.8 µM) | relative viability (IDH-C35 + Navitoclax; first compound 2.53 µM) | relative viability (IDH-C35 + Navitoclax; first compound 8 µM) | relative viability (IDH-C35 + Crizotinib; first compound 0.08 µM) | relative viability (IDH-C35 + Crizotinib; first compound 0.253 µM) | relative viability (IDH-C35 + Crizotinib; first compound 0.8 µM) | relative viability (IDH-C35 + Crizotinib; first compound 2.53 µM) | relative viability (IDH-C35 + Crizotinib; first compound 8 µM) | relative viability ([1]; first compound 0.0025 µM) | relative viability ([1]; first compound 0.007906 µM) | relative viability ([1]; first compound 0.025 µM) | relative viability ([1]; first compound 0.07906 µM) | relative viability ([1]; first compound 0.25 µM) | relative viability (IDH-C35 + Pemetrexed; first compound 0.08 µM) | relative viability (IDH-C35 + Pemetrexed; first compound 0.253 µM) | relative viability (IDH-C35 + Pemetrexed; first compound 0.8 µM) | relative viability (IDH-C35 + Pemetrexed; first compound 2.53 µM) | relative viability (IDH-C35 + Pemetrexed; first compound 8 µM)
1 | NCI-H1944 | 1.02 | 1.04 | 0.942 | 1.05 | 1.04 | 1.12 | 1.18 | 0.979 | 1.04 | 1.22 | 0.263 | 0.269 | 0.246 | 0.25 | 0.253 | 0.591 | 0.67 | 0.562 | 0.612 | 0.568
2 | EPLC-272H | 1.27 | 1.13 | 1.13 |  | 1.07 | 1.09 | 0.805 | 0.855 |  | 1.03 | 0.267 | 0.227 | 0.324 | 0.259 | 0.609 | 0.276 | 0.388 | 0.397 | 0.34 | 0.394
3 | NCI-H1915 | 0.772 | 0.753 | 0.759 | 0.729 | 0.767 | 0.855 | 0.865 | 0.805 | 0.904 | 0.917 | 0.443 | 0.436 | 0.446 | 0.446 | 0.45 | 0.555 | 0.475 | 0.508 | 0.54 | 0.461
4 | NCI-H596 | 1.1 | 1 | 0.925 | 0.867 | 0.962 | 0.831 | 0.966 | 1.08 | 1.02 | 0.973 | 0.976 | 1.07 | 1.04 | 0.94 | 0.889 | 0.473 | 0.475 | 0.529 | 0.549 | 0.455
